Results from US20230085307A1, “PYRIDAZINONE COMPOUND AND HERBICIDE” (NISSAN CHEMICAL CORPORATION, priority 2019, published 2023).

Legend:
[1] = system: late watergrass; assay: Test Example 1: herbicidal activity, application before weed generation under submerged conditions (Table 16, symbol A); type: in vivo, late watergrass (Echinochloa oryzicola); details: 320 g/ha applied herbicide
In short: (§1)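 Submerged Wagner pots (alluvial soil, 4 cm water) sown with weed seeds and planted with 2.5-leaf rice seedlings; emulsifiable concentrate diluted in water applied to water surface on sowing day. Held in greenhouse at 25-30 °C; injury scored 0-5 by herbicidal rate after three weeks.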

[2] = system: Japanese bulrush; assay: Test Example 1: herbicidal activity, application before weed generation under submerged conditions (Table 16, symbol B); type: in vivo, Japanese bulrush (Schoenoplectus juncoides); details: 320 g/ha applied herbicide
In short: as §1

[3] = system: late watergrass; assay: Test Example 2: herbicidal activity, application during weed generation under submerged conditions (Table 17, symbol A); type: in vivo, late watergrass (Echinochloa oryzicola); details: AAH 320 g/ha; application during weed generation, submerged conditions
In short: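 In this pot test, flooded alluvial soil (water depth 4 cm) holds all three species sown as a mixture. Once seedlings have one to two leaves, the compound's emulsion, thinned with water to the intended dose, is poured on the water; grading follows after three weeks on the earlier criteria.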

[4] = system: Chinese sprangletop; assay: Test Example 3: herbicidal effect by foliage application, Wagner pot (Table 18, symbol D); type: in vivo, chinese sprangletop (Leptochloa chinensis); details: 320 g/ha
In short: (§2)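 Plants were sown in alluvial soil held under 0.1–0.5 cm standing water and grown 14 days in a greenhouse at 25–30 °C. An emulsifiable formulation, water-diluted to the set dose, was then sprayed onto the foliage, and effects were scored three weeks later using previously defined criteria.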

[5] = system: rice flat sedge; assay: Test Example 3: herbicidal effect by foliage application, Wagner pot (Table 18, symbol E); type: in vivo, rice flat sedge (Cyperus iria); details: 320 g/ha
In short: as §2

[6] = system: southern crabgrass; assay: Test Example 4: herbicidal effect by soil treatment (Table 19, symbol F); type: in vivo, southern crabgrass (Digitaria ciliaris); details: 320 g/ha
In short: (§3)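 Applied as a water-diluted emulsion, the compound was sprayed onto soil covering newly sown seeds. Evaluation came three weeks after application, in a greenhouse held at 25° C. to 30° C.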

[7] = system: wild oat; assay: Test Example 4: herbicidal effect by soil treatment (Table 19, symbol I); type: in vivo, wild oat (Avena fatua); details: 320 g/ha
In short: as §3

[8] = system: Italian ryegrass; assay: Test Example 4: herbicidal effect by soil treatment (Table 19, symbol K); type: in vivo, Italian ryegrass (Lolium multiflorum); details: 320 g/ha
In short: as §3

[9] = system: windgrass; assay: Test Example 4: herbicidal effect by soil treatment (Table 19, symbol L); type: in vivo, windgrass (Apera spica-venti); details: 320 g/ha
In short: as §3

[10] = system: lambsquarters; assay: Test Example 4: herbicidal effect by soil treatment (Table 19, symbol O); type: in vivo, lambsquarters (Chenopodium album); details: 320 g/ha
In short: as §3

[11] = system: chickweed; assay: Test Example 4: herbicidal effect by soil treatment (Table 19, symbol P); type: in vivo, common chickweed (Stellaria media); details: 320 g/ha
In short: as §3

[12] = system: green foxtail; assay: Test Example 5: herbicidal effect by foliage application, plastic box (Table 20, symbol G); type: in vivo, green foxtail (Setaria viridis); details: foliage application, 320 g/ha, evaluated three weeks after application
In short: (§4)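 Sow seeds spot-wise in sterilized diluvial soil; cover with ~1.5 cm soil. Grow 14 days in greenhouse, 25° C. to 30° C. Spray foliage with emulsion diluted to predetermined amount. Rate effect after 3 weeks.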

[13] = system: barnyard grass; assay: Test Example 5: herbicidal effect by foliage application, plastic box (Table 20, symbol H); type: in vivo, barnyard grass (Echinochloa crus-galli); details: foliage application, 320 g/ha, evaluated three weeks after application
In short: as §4

[14] = system: wild oat; assay: Test Example 5: herbicidal effect by foliage application, plastic box (Table 20, symbol I); type: in vivo, wild oat (Avena fatua); details: foliage application, 320 g/ha, evaluated three weeks after application
In short: as §4

[15] = system: blackgrass; assay: Test Example 5: herbicidal effect by foliage application, plastic box (Table 20, symbol J); type: in vivo, blackgrass (Alopecurus myosuroides); details: foliage application, 320 g/ha, evaluated three weeks after application
In short: as §4

[16] = system: Italian ryegrass; assay: Test Example 5: herbicidal effect by foliage application, plastic box (Table 20, symbol K); type: in vivo, Italian ryegrass (Lolium multiflorum); details: foliage application, 320 g/ha, evaluated three weeks after application
In short: as §4

[17] = system: velvetleaf; assay: Test Example 5: herbicidal effect by foliage application, plastic box (Table 20, symbol M); type: in vivo, velvetleaf (Abutilon theophrasti); details: foliage application, 320 g/ha, evaluated three weeks after application
In short: as §4

Compound	Herbicidal effect on A: late watergrass (grade 0-5) [1]	Herbicidal effect on B: Japanese bulrush (grade 0-5) [2]	herbicidal effect rating, A: late watergrass [3]	herbicidal effect on D (Chinese sprangletop), rating 0-5 [4]	herbicidal effect on E (rice flat sedge), rating 0-5 [5]	herbicidal effect rating, F: southern crabgrass [6]	herbicidal effect rating, I: wild oat [7]	herbicidal effect rating, K: Italian ryegrass [8]	herbicidal effect rating, L: windgrass [9]	herbicidal effect rating, O: lambsquarters [10]	herbicidal effect rating, P: chickweed [11]	herbicidal effect on G: green foxtail [12]	herbicidal effect on H: barnyard grass [13]	herbicidal effect on I: wild oat [14]	herbicidal effect on J: blackgrass [15]	herbicidal effect on K: Italian ryegrass [16]	herbicidal effect on M: velvetleaf [17]
CCCC(=O)Oc1c(C)nn(C)c(=O)c1-c1c(-c2ccc(C(C)=NOC)cc2)sc2ccc(F)cc12 [2-080]	5 (Herbicidal rate of 90% or more (almost completely withered))	5 (Herbicidal rate of 90% or more (almost completely withered))	2 (Herbicidal rate of 20% or more and less than 40%)	5 (Herbicidal rate of 90% or more (almost completely withered))	5 (Herbicidal rate of 90% or more (almost completely withered))	2 (Herbicidal rate of 20% or more and less than 40%)	0 (Herbicidal rate of 5% or less (almost no effect))	4 (Herbicidal rate of 70% or more and less than 90%)	2 (Herbicidal rate of 20% or more and less than 40%)	5 (Herbicidal rate of 90% or more (almost completely withered))	3 (Herbicidal rate of 40% or more and less than 70%)	4 (Herbicidal rate of 70% or more and less than 90%)	5 (Herbicidal rate of 90% or more (almost completely withered))	5 (Herbicidal rate of 90% or more (almost completely withered))	5 (Herbicidal rate of 90% or more (almost completely withered))	5 (Herbicidal rate of 90% or more (almost completely withered))	5 (Herbicidal rate of 90% or more (almost completely withered))
CCOc1cc(F)ccc1-c1sc2ccc(F)cc2c1-c1c(O)c(C)nn(C)c1=O [2-084]	1 (Herbicidal rate of 5% or more and less than 20%)	1 (Herbicidal rate of 5% or more and less than 20%)	2 (Herbicidal rate of 20% or more and less than 40%)	4 (Herbicidal rate of 70% or more and less than 90%)	5 (Herbicidal rate of 90% or more (almost completely withered))	5 (Herbicidal rate of 90% or more (almost completely withered))	2 (Herbicidal rate of 20% or more and less than 40%)	3 (Herbicidal rate of 40% or more and less than 70%)	1 (Herbicidal rate of 5% or more and less than 20%)	5 (Herbicidal rate of 90% or more (almost completely withered))	4 (Herbicidal rate of 70% or more and less than 90%)	5 (Herbicidal rate of 90% or more (almost completely withered))	5 (Herbicidal rate of 90% or more (almost completely withered))	4 (Herbicidal rate of 70% or more and less than 90%)	5 (Herbicidal rate of 90% or more (almost completely withered))	3 (Herbicidal rate of 40% or more and less than 70%)	5 (Herbicidal rate of 90% or more (almost completely withered))
